Reference: ChEMBL document CHEMBL2157867, “2-(4-Chlorophenyl)-2-oxoethyl 4-benzamidobenzoate derivatives, a novel class of SENP1 inhibitors: Virtual screening, synthesis and biological evaluation” (Bioorg Med Chem Lett, 2012)

Molecular target: T1, Sentrin-specific protease 1 (Homo sapiens, UniProt Q9P0U3)
T1 sequence (Q9P0U3 whole entry): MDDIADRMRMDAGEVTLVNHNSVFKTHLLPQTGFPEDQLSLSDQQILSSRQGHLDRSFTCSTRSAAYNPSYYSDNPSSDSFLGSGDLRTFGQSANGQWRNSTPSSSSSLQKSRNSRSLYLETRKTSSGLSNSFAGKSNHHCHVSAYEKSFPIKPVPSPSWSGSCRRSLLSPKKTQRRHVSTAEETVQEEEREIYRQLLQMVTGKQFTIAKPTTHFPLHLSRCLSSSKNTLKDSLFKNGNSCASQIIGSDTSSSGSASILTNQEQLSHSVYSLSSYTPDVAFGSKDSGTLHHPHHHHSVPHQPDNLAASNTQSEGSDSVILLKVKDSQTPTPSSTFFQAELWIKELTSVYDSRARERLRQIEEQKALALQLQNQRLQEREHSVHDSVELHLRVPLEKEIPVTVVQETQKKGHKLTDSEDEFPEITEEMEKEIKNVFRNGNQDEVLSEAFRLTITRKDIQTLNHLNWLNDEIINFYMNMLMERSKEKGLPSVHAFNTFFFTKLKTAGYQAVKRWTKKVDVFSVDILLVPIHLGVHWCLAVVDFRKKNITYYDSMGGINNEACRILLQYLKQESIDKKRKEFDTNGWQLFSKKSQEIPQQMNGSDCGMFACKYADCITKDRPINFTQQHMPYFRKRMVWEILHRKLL
Test: Inhibition of recombinant His-tagged SENP1 catalytic domain expressed in Escherichia coli BL21(DE3) using His-tagged deltaRanGAP-SUMO2 as substrate incubated for 10 mins prior to substrate addition measured after 45 mins by SDS-PAGE analysis

IC50 [µM] | Compound
> 50 | O=C(COC(=O)c1ccc(NC(=O)c2cccc(O)c2)cc1)c1ccc(Cl)cc1
> 50 | Nc1cccc(C(=O)Nc2ccc(C(=O)OCC(=O)c3ccc(Cl)cc3)cc2)c1
> 50 | COc1ccc(C(=O)Nc2ccc(C(=O)OCC(=O)c3ccc(Cl)cc3)cc2)cc1OC
> 50 | CCOc1ccc(C(=O)Nc2ccc(C(=O)OCC(=O)c3ccc(Cl)cc3)cc2)cc1OCC
